Test results from the NIST ThermoML archive (doi:10.1016/j.jct.2004.10.011).

Details: Liquid, Vibrating tube method

CCC(=O)c1ccccc1 [ethyl phenyl ketone]
mass density [kg/m3]
Details	298.15 K	308.15 K	318.15 K	328.15 K
100 kPa	1005.3	996.8	988.3	979.6
2130 kPa	1006.4	998	989.6	981.1
4150 kPa	1007.5	999.2	990.9	982.4
6180 kPa	1008.7	1000.4	992.1	983.7
8210 kPa	1009.8	1001.6	993.3	985
10230 kPa	1010.9	1002.8	994.6	986.2
11250 kPa	1011.5	1003.4	995.2	986.9
12260 kPa	1012.1	1003.9	995.8	987.5
14290 kPa	1013.2	1005.1	997	988.7
16310 kPa	1014.3	1006.2	998.1	990
18340 kPa	1015.3	1007.3	999.3	991.2
20370 kPa	1016.4	1008.4	1000.4	992.3
22390 kPa	1017.5	1009.5	1001.6	993.5
24420 kPa	1018.5	1010.6	1002.7	994.7
26450 kPa	1019.5	1011.7	1003.8	995.9
28470 kPa	1020.5	1012.8	1004.9	997.1
29490 kPa	1021	1013.2	1005.5	997.6
30500 kPa	1021.6	1013.8	1006	998.2
32530 kPa	1022.5	1014.8	1007.1	999.3
34550 kPa	1023.5	1015.8	1008.2	1000.4
36580 kPa	1024.5	1016.8	1009.2	1001.5
38600 kPa	1025.5	1017.9	1010.3	1002.6
39620 kPa	1025.9	1018.3	1010.8	1003.2

Cc1ccccc1 [toluene]
mass density [kg/m3]
Details	298.15 K	308.15 K	318.15 K	328.15 K
100 kPa	862.1	853	843.8	834.5
2130 kPa	863.6	854.5	845.6	836.5
4150 kPa	865.2	856.2	847.3	838.3
6180 kPa	866.7	857.8	849	840.1
8210 kPa	868.2	859.3	850.6	841.8
10230 kPa	869.6	860.9	852.3	843.5
11250 kPa	870.4	861.7	853.1	844.4
12260 kPa	871.1	862.4	853.9	845.2
14290 kPa	872.5	863.9	855.4	846.9
16310 kPa	873.9	865.4	857	848.6
18340 kPa	875.3	866.8	858.5	850.1
20370 kPa	876.7	868.2	860	851.7
22390 kPa	878	869.6	861.5	853.3
24420 kPa	879.3	871	862.9	854.8
26450 kPa	880.6	872.4	864.4	856.3
28470 kPa	881.9	873.8	865.8	857.8
29490 kPa	882.5	874.4	866.5	858.5
30500 kPa	883.2	875	867.2	859.3
32530 kPa	884.4	876.3	868.5	860.7
34550 kPa	885.6	877.6	869.9	862.1
36580 kPa	886.8	878.9	871.2	863.5
38600 kPa	888	880.1	872.5	864.9
39620 kPa	888.6	880.7	873.2	865.5
